From patent US11541093B2, “Pharmacological use of Cimicifuga extract” (Max Zeller Soehne AG, priority 2012, dated 2023)

Assays:
diabetic rats = conditions: intravenously at 5 and 10 mg/kg; cited from earlier work
male ob/ob mice [1] = assay: Body weight in male ob/ob mice; assay type: in vivo
Text: (§1) The effects of oral 7-day administration of a Cimicifuga racemosa extract prepared according to example 1 and designated Ze 450 on body weight, daily food and water intake as well as glucose control were investigated in male ob/ob mice as follows. The ob/ob mouse is a well-characterized and representative in-vivo model of obesity and diabetes in mammals, in particular humans, wherein both disorders are the result of a mutation in the ob gene which encodes leptin. In the study metformin was the positive control.
(§2) Body weight, food and water intake were measured daily from 6 days before dosing to 6 days after dosing started. Animals were fasted overnight on Day 6 for an oral glucose tolerance test (OGTT) on Day 7. The animals also had freely fed bleeds on Day −4 and Day 6. […]
(§3) All treatments were dosed orally by gavage […] once daily. During the treatment period food intake, water intake and body weight were recorded daily at the dosing session. After dosing the animals were examined and any overt behavior was recorded. […]
(§4) Body weights, food intake and water intake were expressed as mean values ±SEM. Body weight, body weight gain, daily and average food and water intake data and cumulative food intake were analyzed by ANCOVA with baseline as a covariate, followed by appropriate comparisons (two-tailed) to determine significant differences from the appropriate control group. […]

male ob/ob mice [2] = assay: Daily water intake in male ob/ob mice; assay type: in vivo; conditions: metformin PO; p=0.002
Text: as §1, §2, §3, §4

SMILES	plasma glucose levels (diabetic rats)	effect on overall body weight (male ob/ob mice [1]; metformin 200 mg/kg PO, after 6 days of treatment)	cumulative body weight over the 6 treatment days (male ob/ob mice [1]; metformin PO, compared to its control group)	average weekly water intake (male ob/ob mice [2])
COc1ccc(/C=C/C(=O)O)cc1O [isoferulic acid]	will lower plasma glucose levels			
CN(C)C(=N)N=C(N)N [metformin]		no significant effect	virtually no reduction	significant (p=0.002) reduction
